From patent publication US6703216B2, “Methods, compositions and apparatuses for detection of gamma-hydroxybutyric acid (GHB)” (priority 2002, dated 2004)
Read-outs that look alike come from different tables or passages of the source.

What was measured:
GHB-DH fusion protein [1] = target: T1, GHB-DH fusion protein (Cupriavidus necator, UniProt Q59104); type: biochemical, Ralstonia eutropha; design: made in house; host or cells: E. coli pLysS cells (Novagene), vector pGEX-2T/GHB-DH
Method: A number of potential stabilizing agents were tested for their suitability in stabilizing a formulation of a GST fusion protein comprising the R. eutropha SSA reductase. Enzymatic activity of the purified fusion protein was studied after storage in different formulations for 21 days at 4° C. […] A range of concentrations of ammonium sulfate and glycerol were tested. […] GHB-DH may contain bound iron and copper ions (Wolf, 1995), which chelating agents can sequester and thereby denature and/or inactivate the oxidoreductase.
Enzymatic assay for GHB based on formation of NADH. GHB-DH activity was assayed at 23° C. in 1 ml of buffer (97 mM 2-amino-2-methyl-1,3-propanediol (AMPD) adjusted to pH 8.5 with HCl) containing 14 μg purified fusion protein and 1 mM NAD^+ in a cuvette of 1 cm path length at 23° C. (Valentin, 1995). Reaction was initiated by the addition of GHB to 20 mM, and formation of NADH was monitored by the increase in absorbance at 334 nm (FIG. 4A).
Stability of fusion protein. The GHB-DH enzymatic activity of R. eutropha GHB-DH fusion protein was studied after storage for 21 days at 4° C. under various conditions (FIG. 5). Fourteen μg of protein was assayed using the method described in Example 4. Test enzyme solutions included the crude lysate, purified fusion protein at 7 mg/ml in 50 mM NaCl and 30 mM MOPS adjusted to pH 7.4 with NaOH, and purified fusion protein at 7 mg/ml in the same buffer also containing potential stabilizing agents.

[2] = target: purified GHB-DH fusion protein (Cupriavidus necator, UniProt Q59104); conditions: for weaker affinity for GHB-DH than GHB: ethanol relative to GHB
GHB-DH fusion protein [3] = target: T1, GHB-DH fusion protein; type: biochemical, Ralstonia eutropha; design: made in house; host or cells: E. coli pLysS cells (Novagene), vector pGEX-2T/GHB-DH; remark: listed apart in the source
R. eutropha GHB-DH [4] = target: T2, R. eutropha GHB-DH (Cupriavidus necator, UniProt Q59104); test: Economical dipstick assay for GHB in alcoholic beverages after evaporation
R. eutropha GHB-DH [5] = target: T2, R. eutropha GHB-DH; type: biochemical, Ralstonia eutropha; design: made in house; host or cells: E. coli pLysS cells (Novagene), vector pGEX-2T/GHB-DH; conditions: 20 mM GHB in the same concentrations of ethanol
GHB-DH fusion protein [6] = target: T1, GHB-DH fusion protein; test: Detection of GHB in human urine on filter paper
[7] = 150-pound person, cited from earlier work
O=C(O)CCCO = test: purified protein, by the assay type; conditions: other: GHB as substrate, 5 μg fusion protein, pH 8.5, 23° C.
[8] = purified fusion protein 7 mg/ml, 21 days at 4° C.

Compound: O[C@H](CS)[C@H](O)CS (racemic) [DTT, dithiothreitol]
- effect of agent on enzyme activity during storage (GHB-DH fusion protein [1]; [8]): nearly completely inactivated enzyme activity
- effect of agent on enzyme activity during storage (GHB-DH fusion protein [1]; purified fusion protein 7 mg/ml, 21 days at 4° C., listed as dithiothreitol): drastically diminished enzyme activity

Compound: OCCS [BME, 2-mercaptoethanol]
- effect of agent on enzyme activity during storage (GHB-DH fusion protein [1]; [8]): nearly completely inactivated enzyme activity
- effect of agent on enzyme activity during storage (GHB-DH fusion protein [1]; purified fusion protein 7 mg/ml, 21 days at 4° C., listed as beta-mercaptoethanol): drastically diminished enzyme activity

Compound: O=C(O)CN(CCN(CC(=O)O)CC(=O)O)CC(=O)O [EDTA, ethylene diamine tetraacetic acid]
- effect of agent on enzyme activity during storage (GHB-DH fusion protein [1]; [8]): nearly totally inactivated enzyme activity
- effect of agent on enzyme activity during storage (GHB-DH fusion protein [1]; purified fusion protein 7 mg/ml, 21 days at 4° C., listed as ethylene diamine tetraacetic acid): drastically diminished enzyme activity

Compound: CCO [Ethanol, ethanol]
- weaker affinity for GHB-DH than GHB [2]: about 200 fold
- weaker affinity for GHB-DH than GHB ([2]; listed as ethanol): approximately 200 fold
- color produced (GHB-DH fusion protein [3]; all concentrations of ethanol tested): little or no color

Compound: O=C(O)CCCO [GHB, 4-hydroxy-butanoic acid]
- color developed (R. eutropha GHB-DH [4]; 20 mM GHB in 25 alcoholic beverages, 2 minutes): intense purple color
- GHB concentration detected in alcoholic beverages (R. eutropha GHB-DH [4]; evaporated sample, 2 minutes reaction at 23° C.): ≤ 1 mM
- color produced on paper (R. eutropha GHB-DH [5]): intense purple
- Vmax ([2]; GHB as substrate (FIG. 6A)): 0.049±0.001 A/min/μg
- Vmax ([2]; GHB as substrate, 5 μg fusion protein): 0.049±0.001 Absorbance/min/μg fusion protein
- GHB concentration readily detected (GHB-DH fusion protein [3]; conjugated filters, assay buffer, 23° C.): ≤ 2 mM
- color produced (GHB-DH fusion protein [6]; 0.1 mM GHB in human urine): slight but definite purple
- color produced (GHB-DH fusion protein [6]; 0.3 mM GHB in human urine): substantial purple
- GHB concentration in urine producing color (GHB-DH fusion protein [6]; human urine, dried or not dried, 5 minutes): ≤ 0.1 mM
- effect in a person ([7]; 1-gram dose): low degree of effect
- effect in a person ([7]; 2.5-gram dose): coma

Compound: N.N.O=S(=O)(O)O [ammonium sulfate]
- effect of agent on enzyme activity during storage (GHB-DH fusion protein [1]; [8]): somewhat deleterious
- enzyme activity lost during storage (GHB-DH fusion protein [1]; range of concentrations of ammonium sulfate, 21 days at 4° C.): ≥ 50%

Compound: OCC(O)CO [glycerol]
- effect of agent on enzyme activity during storage (GHB-DH fusion protein [1]; 5-20% glycerol, 4° C.): retained high degrees of enzyme activity
- effect of agent on enzyme activity during storage (GHB-DH fusion protein [1]; 10% glycerol, 21 days, 4° C.): greatest retention
- effect of agent on enzyme activity during storage (GHB-DH fusion protein [1]; 50% glycerol at 4° C.): deleterious

Compound: oxidized glutathione
- effect of agent on enzyme activity during storage (GHB-DH fusion protein [1]; [8]): drastically diminished enzyme activity
- effect of agent on enzyme activity during storage (GHB-DH fusion protein [1]; purified fusion protein 7 mg/ml, 21 days at 4° C., listed as oxidized GSH): nearly totally inactivated enzyme activity

Compound: purified GHB-DH fusion protein (Cupriavidus necator)
- Km (O=C(O)CCCO): 2.19 ± 0.13 mM

Compound: reduced glutathione
- effect of agent on enzyme activity during storage (GHB-DH fusion protein [1]; [8]): drastically diminished enzyme activity
- effect of agent on enzyme activity during storage (GHB-DH fusion protein [1]; purified fusion protein 7 mg/ml, 21 days at 4° C., listed as reduced GSH): nearly totally inactivated enzyme activity
